Active and inactive are the calls of the source. The rule behind the calls is not given here.
Legend:
HEK293 [1] = assay: Inhibition of Wnt/beta-catenin pathway in HEK293 cells assessed as decrease in Wnt3a-CM-induced beta-catenin response regulated transcription level at 10 to 40 uM after 15 hrs by TOPflash reporter gene assay in presence of 5-epi-nakijinone; format: cell-based; settings: Homo sapiens
HEK293 [2] = assay: Inhibition of Wnt/beta-catenin pathway in HEK293 cells assessed as downregulation of Wnt3a-CM-activated beta-catenin expression at 1.5 to 6 uM after 15 hrs by Western blot analysis; format: cell-based; settings: Homo sapiens
SW480 [3] = assay: Cytotoxicity against human SW480 cells assessed as growth inhibition at >20 uM after 48 hrs by Cell-Titer-Glo assay in presence of 5-epi-nakijinone; format: functional, cell-based
HCT-116 [4] = assay: Cytotoxicity against human HCT116 cells assessed as growth inhibition at >20 uM after 48 hrs by Cell-Titer-Glo assay in presence of 5-epi-nakijinone; format: functional, cell-based
HEK293 [5] = assay: Inhibition of Wnt/beta-catenin pathway in HEK293 cells assessed as decrease in Wnt3a-CM-induced beta-catenin response regulated transcription level at 1.5 to 6 uM after 15 hrs by TOPflash reporter gene assay; format: cell-based; settings: Homo sapiens
HEK293 [6] = assay: Inhibition of Wnt/beta-catenin pathway in HEK293 cells assessed as downregulation of Wnt3a-CM-activated beta-catenin expression at 10 to 40 uM after 15 hrs by Western blot analysis in presence of 5-epi-nakijinone; format: cell-based; settings: Homo sapiens
SW480 [7] = assay: Cytotoxicity against human SW480 cells assessed as growth inhibition after 48 hrs by Cell-Titer-Glo assay; format: functional, cell-based; settings: SW480, 48 h
HCT-116 [8] = assay: Cytotoxicity against human HCT116 cells assessed as growth inhibition after 48 hrs by Cell-Titer-Glo assay; format: functional, cell-based; settings: HCT-116, 48 h
HEK293 [9] = assay: Inhibition of Wnt/beta-catenin pathway in HEK293 cells assessed as decrease in Wnt3a-CM-induced beta-catenin response regulated transcription level at 10 to 40 uM after 15 hrs by TOPflash reporter gene assay; format: cell-based; settings: Homo sapiens
HEK293 [10] = assay: Inhibition of Wnt/beta-catenin pathway in HEK293 cells assessed as downregulation of Wnt3a-CM-activated beta-catenin expression at 10 to 40 uM after 15 hrs by Western blot analysis; format: cell-based; settings: Homo sapiens
SW480 [11] = assay: Cytotoxicity against human SW480 cells assessed as growth inhibition at >20 uM after 48 hrs by Cell-Titer-Glo assay; format: functional, cell-based
HCT-116 [12] = assay: Cytotoxicity against human HCT116 cells assessed as growth inhibition at >20 uM after 48 hrs by Cell-Titer-Glo assay; format: functional, cell-based

## C=C1CCC[C@H]2[C@](C)(CC3=C4OC(C)(C)N=C4C=C(OC)C3=O)[C@@H](C)CC[C@]12C
HEK293 [1]
  inhibition: Active
HEK293 [2]
  inhibition: Active
SW480 [3]
  growth inhibition (GI): Active
HCT-116 [4]
  growth inhibition (GI): Active

## C=C1CCC[C@H]2[C@](C)(CC3=C(O)C(=O)C=C(OCC)C3=O)[C@@H](C)CC[C@@]12C
HEK293 [5]
  inhibition: Active
HEK293 [6]
  inhibition: Active
SW480 [7]
  IC50: 3.24 µM
HCT-116 [8]
  IC50: 2.95 µM

## C=C1CCC[C@H]2[C@](C)(Cc3c(O)c(OC)cc4nc(C)oc34)[C@@H](C)CC[C@@]12C
HEK293 [9]
  inhibition: Active
HEK293 [10]
  inhibition: Active
SW480 [11]
  growth inhibition (GI): Active
HCT-116 [12]
  growth inhibition (GI): Active

From ChEMBL document CHEMBL3576867, “Cytotoxic activity of rearranged drimane meroterpenoids against colon cancer cells via down-regulation of β-catenin expression” (J Nat Prod, 2015)
